Reference: patent publication US20040138245A1, “Product comprising mikanolide, dihydromikanolide or an analogue thereof combine with another anti-cancer agent for therapeutic use in cancer treatment” (priority 2001, published 2004)
Where “and” joins values, the source holds several entries; their conditions need not be identical. Identical values can stand only once.

Test system: HT-29 (human colon cancer cells)
Test: Measurement of cellular proliferation in vitro (WST1 colorimetric test, 120 hours)
Type: cell-based
Conditions: HT29 cells
Protocol: The cell line HT-29 (human colon cancer cells) was acquired from the American Tissue Culture Collection (Rockville, Md., USA).
The HT-29 cells (4000 cells/wells) are cultured on 96-well plates.
On day 0, these cells are seeded in 90 μl of Dulbecco's modified Eagle medium (Gibco-Brl, Cergy-Pontoise, France) completed with 10% of foetal calf serum inactivated by heating (Gibco-Brl, Cergy-Pontoise, France), 50000 units/l of penicillin and 50 mg/l of streptomycin (Gibco-Brl, Cergy-Pontoise, France), and 2 mM of glutamine (Gibco-Brl, Cergy-Pontoise, France).
The cells were treated simultaneously with concentrations of the compounds to be tested singly or in combination for 120 hours.
At the end of the of this period, quantification of the cellular proliferation is evaluated by colorimetric test based on the cleavage of the tetrazolium salt WST1 by the mitochondrial […] in the living cells leading to the formation of formazan (Boehringer Mannheim, Meylan, France). These tests are carried out four times with 6 determinations for each single product and for each combination tested. This allows determination of the number of living cells at the end of each treatment.

[NH2][Pt]([NH2])([Cl])[Cl] [Example B1, cisplatin, reference compound]
% of living cells (single compound at 6.25 μM): 48%

NC(CS)C(=O)N1CCn2cc(-c3ccccc3)nc2C1CC1CCCCC1 (stereo not drawn) [Example B2, 7-(2-amino-1-oxo-3-thiopropyl)-8-(cyclohexylmethyl)-2-phenyl-5,6,7,8-tetrahydroimidazo[1,2a]pyrazine]
% of living cells (single compound at 25 μM): 37% and 64%

CC(C)[C@H](CO)Nc1nc(NCc2cccnc2)n2ncc(Br)c2n1 [Example B3, 8-bromo-2-(1R-isopropyl-2-hydroxyethylamino)-4-(3-pyridylmethylamino)pyrazolo[1,5-a]-1,3,5-triazine]
% of living cells (single compound at 100 nM): 104%

4-(2-bromophenyl)-1-(2-(1-((4-cyano-3-methoxy)phenylmethyl)imidazo-5-yl)-1-oxoethyl)-1,2-dihydro-8-fluoroimidazol[1,2a][1,4]-benzodiazepine [Example B4]
% of living cells (single compound at 5 μM): 93% and 78%

hydrochloride of 8-(dimethylamino)-3,10a-dimethyl-2,6-dioxodecahydro-4,7-methenofuro[3,2-c]oxireno[f]oxacycloundecin-9-yl 2-naphthylcarbamate [Example A2]
% of living cells (single compound at 5 μM): 67% and 72% and 55%

C[C@H]1C(=O)O[C@H]2C[C@]3(C)O[C@@H]3[C@@H]3O[C@@H]3C3=C[C@@H](OC3=O)[C@@H]21 [Example A1, dihydromikanolide]
% of living cells (single compound at 5 μg/ml): 61% and 64%
